# Source: US20040106683A1, “Uses of benzylideneamino guanidines as ligands to the melnocortin receptors” (priority 2001, published 2004)
# pKi: −log10 of the molar value. Structures can show the parent of a compound that is named as a salt.
# Columns and labels:
# [1] = biological target: T1, MC1 receptor (Mus musculus, UniProt Q01727); assay: Affinity for the MC1-receptor, displacement of 125I-NDP-MSH in B16 mouse melanoma cells; conditions: endogenous mouse MC1, nb = non-binding, i.e. no affinity, read-out: Affinity for MC-receptors, Ki, MC1
# T1 construct: B16 mouse melanoma cells were used, which endogenously express the (mouse) MC1 receptor; endogenous in cells; host or cells: B16 mouse melanoma cells
# T1 sequence (Q01727 whole entry): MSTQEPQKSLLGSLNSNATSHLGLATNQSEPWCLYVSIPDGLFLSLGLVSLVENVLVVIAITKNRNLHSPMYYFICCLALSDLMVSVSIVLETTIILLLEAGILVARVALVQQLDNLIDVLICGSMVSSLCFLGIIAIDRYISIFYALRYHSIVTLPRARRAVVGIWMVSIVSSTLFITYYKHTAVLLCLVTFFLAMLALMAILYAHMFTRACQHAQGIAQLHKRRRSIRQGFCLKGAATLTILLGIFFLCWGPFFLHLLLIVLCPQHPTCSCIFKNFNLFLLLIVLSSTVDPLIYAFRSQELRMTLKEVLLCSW
# Protocol: Test 1. Affinity for the MC1-Receptor
# (§1) Essentially, the affinity of the compounds for the different melanocortin receptors were determined by using either insect cells (Sf9) or COS cells, which were transfected with recombinant human MC3, MC4 or MC5 receptors. For the determination of the affinity for the MC1 receptor, B16 mouse melanoma cells were used, which endogenously express the (mouse) MC1 receptor.
# (§2) Incubation was performed in 96-well plates, using 50,000 cells/well (Sf9 or COS cells) up to 200,000 cells/well (mouse melanoma cells).
# (§3) After the incubation, the cells were washed twice to get rid of the excess tracer and compound, and the cells were lysed with 0.1 M NaOH. The lysate was counted in a gamma-counter, binding was calculated and the affinity determined.
# [2] = biological target: T2, recombinant human MC3 receptor (Homo sapiens, UniProt P41968); assay: Affinity for the MC3-receptor, displacement of 125I-NDP-MSH in transfected Sf9 or COS cells; conditions: nb = non-binding, i.e. no affinity, read-out: Affinity for MC-receptors, Ki, MC3
# T2 construct: expressed in transfected cells; host or cells: Sf9 insect cells or COS cells
# T2 sequence (P41968 whole entry): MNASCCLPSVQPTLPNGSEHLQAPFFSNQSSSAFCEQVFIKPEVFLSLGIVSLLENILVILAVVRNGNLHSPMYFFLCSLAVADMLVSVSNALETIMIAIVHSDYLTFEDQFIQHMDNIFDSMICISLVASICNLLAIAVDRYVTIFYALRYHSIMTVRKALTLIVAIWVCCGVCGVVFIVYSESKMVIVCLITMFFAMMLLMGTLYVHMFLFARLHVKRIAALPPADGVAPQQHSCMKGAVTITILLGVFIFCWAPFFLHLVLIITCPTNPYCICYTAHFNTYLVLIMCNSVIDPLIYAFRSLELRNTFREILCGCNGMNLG
# Protocol: (§4) Test 2. Affinity for the MC3-Receptors, the MC4-Receptors and the MC5-Receptors
# as §1, §2, §3
# [3] = biological target: T3, recombinant human MC4 receptor (Homo sapiens, UniProt P32245); assay: Affinity for the MC4-receptor, displacement of 125I-NDP-MSH in transfected Sf9 or COS cells; conditions: nb = non-binding, i.e. no affinity, read-out: Affinity for MC-receptors, Ki, MC4
# T3 construct: expressed in transfected cells; host or cells: Sf9 insect cells or COS cells
# T3 sequence (P32245 whole entry): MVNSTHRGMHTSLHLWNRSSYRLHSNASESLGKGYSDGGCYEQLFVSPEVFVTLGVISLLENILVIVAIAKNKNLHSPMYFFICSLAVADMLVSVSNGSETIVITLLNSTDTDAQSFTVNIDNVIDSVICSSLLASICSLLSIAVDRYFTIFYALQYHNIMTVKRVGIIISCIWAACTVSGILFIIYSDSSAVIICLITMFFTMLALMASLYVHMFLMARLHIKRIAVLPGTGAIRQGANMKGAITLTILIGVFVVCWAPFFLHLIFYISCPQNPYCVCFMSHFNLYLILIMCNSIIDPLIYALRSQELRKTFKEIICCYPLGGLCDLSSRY
# Protocol: as §4, §1, §2, §3
# [4] = biological target: T4, recombinant human MC5 receptor (Homo sapiens, UniProt P33032); assay: Affinity for the MC5-receptor, displacement of 125I-NDP-MSH in transfected Sf9 or COS cells; conditions: nb = non-binding, i.e. no affinity, read-out: Affinity for MC-receptors, Ki, MC5
# T4 construct: expressed in transfected cells; host or cells: Sf9 insect cells or COS cells
# T4 sequence (P33032 whole entry): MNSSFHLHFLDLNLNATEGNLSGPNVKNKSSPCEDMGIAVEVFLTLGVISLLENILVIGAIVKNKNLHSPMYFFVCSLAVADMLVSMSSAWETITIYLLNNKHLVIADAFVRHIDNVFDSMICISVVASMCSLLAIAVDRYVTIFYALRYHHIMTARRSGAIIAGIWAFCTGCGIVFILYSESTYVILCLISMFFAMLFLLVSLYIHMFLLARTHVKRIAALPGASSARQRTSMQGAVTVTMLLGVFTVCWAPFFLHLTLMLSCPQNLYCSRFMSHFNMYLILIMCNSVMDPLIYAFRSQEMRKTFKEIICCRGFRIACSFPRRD
# Protocol: as §4, §1, §2, §3
melting point,pKi [1],pKi [2],pKi [3],pKi [4],Structure (SMILES)
205 to 212 °C (dec.),,,,,"N=C(N)NN=Cc1cc2c(cc1[N+](=O)[O-])OCO2 (as salt: salt) [1:17, N-(4,5-Methylenedioxy-2-nitrobenzylideneamino)guanidine]"
160 to 161.5 °C,,,,,"N=C(N)NN=Cc1cccc(Br)c1 (as salt: salt) [1:21, N-(3-Bromobenzylideneamino)guanidine]"
,5.68,< 3.70,4.55,< 3.70,"N=C(N)NN=Cc1cc2c(cc1[N+](=O)[O-])OCO2 [1:17, N-(4,5-Methylenedioxy-2-nitrobenzylideneamino)guanidine]"
,5.92,4.34,5.27,4.51,"N=C(N)NN=Cc1cccc(Br)c1 [1:21, N-(3-Bromobenzylideneamino)guanidine]"

# The remaining lines, values behind:
Structure (SMILES),melting point,pKi [1],pKi [2],pKi [3],pKi [4]
"N=C(N)NN=Cc1ccccc1Br (as salt: HCl) [1:14, N-(2-Bromobenzylideneamino)guanidine]",197 to 201 °C,,,,
"N=C(N)NN=Cc1cc(O)ccc1Br (as salt: HCl) [1:15, N-(2-Bromo-5-Hydroxybenzylideneamino)guanidine]",223 to 228 °C (dec.),,,,
"N=C(N)NN=Cc1ccccc1Br [1:14, N-(2-Bromobenzylideneamino)guanidine]",,6.22,4.13,6.05,
"N=C(N)NN=Cc1cc(O)ccc1Br [1:15, N-(2-Bromo-5-Hydroxybenzylideneamino)guanidine]",,5.89,,5.17,4.17
